Experiments:
[1] = test system: benzo(a)pyrene hydroxylase; experiment: Toxicity of doxorubicin in vivo: benzo(a)pyrene hydroxylase activity in the liver; set-up: species or system rats
Procedure: (§1) On the other hand the drop in benzo(a)pyrene hydroxylase activity is no more than 20% and the decrease in aldrin mono-oxygenase activity is reduced to 40%.
(§2) A single dose (10 mg/kg) of a composition containing equal amounts by weight of doxorubicin and of para-(methoxyphenylacetyl)-dehydroalanine was injected into rats. A 60% increase in the minimum content of cytochrome P450, a 20% increase in the benzo(a)pyrene hydroxylase activity and a 5% decrease in the aldrin mono-oxygenase activity were observed.

[2] = test system: L311 leukaemia cells; experiment: Survival of rats inoculated with L311 leukaemia cells (Example 6); assay type: in vivo, LOU/2 strain; conditions: doxorubicin alone, intraperitoneal
Procedure: A pharmaceutical composition is prepared by mixing 4 g of para-(methoxyphenylacetyl)-dehydroalanine obtained according to Example 1 and 0.2 g of doxorubicin.
One million L311 leukaemia cells are injected intraperitoneally into a group of six rats, LOU/2 strain, the mean body weight of the rats being 160 g. L311 leukaemia is a tumour transplantable in rats of strain LOU/2, the tumour being described in the article by C. Deckers, F. Mare, L. Deckers-Passeu and A. Trouet, Adriamycin Review, Part I, 1973, pages 79 to 86.
48 hours after this injection the pharmaceutical composition described above is administered to the rats, again intraperitoneally, in an amount of 105 mg per kg of rat.
By way of comparison, a group of twelve similar rats to which one million L311 leukaemia cells have also been administered is subjected solely to intraperitoneal administration of doxorubicin 48 hours after the administration of the L311 leukaemia cells, and a group of twelve similar rats to which one million L311 leukaemia cells have also been administered is given no subsequent treatment whatsoever.

[3] = test system: cytochrome P450; experiment: Toxicity of doxorubicin in vivo: content of cytochrome P450 in the liver; set-up: species or system rats
Procedure: as §1, §2

[4] = Lethal dose (LD50) in the mouse; conditions: in vivo
Description: The results obtained are listed in the table below, the para-(methoxyphenylacetyl)-dehydroalanine being referred to by the code S 86.

[5] = Solubility; assay type: physicochemical
[6] = test system: aldrin mono-oxygenase; experiment: Toxicity of doxorubicin in vivo: aldrin mono-oxygenase activity in the liver; set-up: species or system rats; conditions: rat
Procedure: as §1, §2

[7] = test system: Taper Liver Tumor cancer cells; experiment: Survival of mice inoculated with Taper Liver Tumor cells (Example 2); assay type: in vivo; conditions: cyclophosphamide alone, intraperitoneal, 48 hours after cancer cells
Procedure: A pharmaceutical composition is prepared by mixing 4 g of para-(methoxyphenylacetyl)-dehydroalanine obtained according to Example 1 and 3.2 g of cyclophosphamide.
One million "Taper Liver Tumor" cancer cells are injected intraperitoneally into a group of 10 mice each weighing about 30 g. 48 hours after this injection, the pharmaceutical composition described above is administered again intraperitoneally, in an amount of 180 mg per kg of mouse.
By way of comparison, a group of 10 similar mice to which likewise one million "Taper Liver Tumor" cancer cells have been administered is subjected solely to administration of cyclophosphamide, by intraperitoneal injection, 48 hours after administration of the cancer cells, and a group of 10 other similar mice, to which, again, one million "Taper Liver Tumor" cancer cells have been administered is not subjected to any further treatment whatsoever.

[8] = test system: Taper Liver Tumor cancer cells; experiment: Taper Liver Tumor in mice, variation of the amount of S 86 (Example 3); assay type: in vivo, NMRI strain; conditions: cyclophosphamide 80 mg/kg alone, i.p.
Procedure: One million "Taper Liver Tumor" cancer cells are injected intraperitoneally into groups of twelve adult male mice, NMRI strain, the mice having a body weight of about 30 grams. 48 hours after this injection various pharmaceutical compositions according to the invention are administered, again intraperitoneally, to the mice, the amount of para-(methoxyphenylacetyl)-dehydroalanine present in the composition administered being varied, and compositions only containing cyclophosphamide also beino administered.
(§3) Thereafter, three parameters are measured:
(a) the variations of the mean weight of the mice on the fifth day after inoculation of the cancer tumour (V.M.W.)
(§4) (b) the median survival of 12 mice treated with a pharmaceutical composition according to the invention or treated with cyclophosphamide alone (M.S.)
(c) the prolongation of survival of the mice treated with a composition according to the invention relative to comparison mice treated with cyclophosphamide alone (P.S.).

[9] = test system: Taper Liver Tumor cancer cells; experiment: Taper Liver Tumor in mice, variation of the amount of cyclophosphamide (Example 4); assay type: in vivo, NMRI strain; conditions: i.p.
Procedure: One million "Taper Liver Tumor" cancer cells are injected intraperitoneally into groups of twelve adult male mice, NMRI strain, the mice having a body weight of about 30 grams. 48 hours after this injection various pharmaceutical compositions according to the invention are administered, again intraperitoneally, to the mice, the amount of cyclophosphamide present in the composition administered being varied, and compositions only containing cyclophosphamide also being administered.
as §3
(a) the variation of the mean weight of the mice on the fifth day after inoculation of the cancer tumour (V.M.W.)
as §4
(c) the prolongation of survival of the mice treated with a composition according to the invention relative to comparison mice treated with the same dose of cyclophosphamide (P.S).

[10] = single dose of doxorubicin 10 mg/kg, subcutaneous, rat liver
[11] = cyclophosphamide 80 mg/kg alone
[12] = cyclophosphamide 180 mg/kg alone
[13] = cyclophosphamide 360 mg/kg alone
[14] = cyclophosphamide 450 mg/kg alone
[15] = cyclophosphamide 540 mg/kg alone

For `COc1cccc2c1C(=O)c1c(O)c3c(c(O)c1C2=O)C[C@@](O)(C(=O)CO)C[C@@H]3O[C@H]1C[C@H](N)[C@H](O)[C@H](C)O1` [doxorubicin], the “benzo(a)pyrene hydroxylase activity (in words)” value [1, 10] was “a drop in benzo(a)pyrene hydroxylase activity”, the “first death after administration of the leukaemia cells” value [2] was “sixteen” and the “mean length of survival after administration of the leukaemia cells” value ([2]; 48 hours after leukaemia cells) was 27.6 days. For the same compound, the “reduction in the minimum content of cytochrome P450” value [3, 10] was 20%.

With `C=C(NC(=O)Cc1ccc(OC)cc1)C(=O)O` [S 86, para-(methoxyphenylacetyl)-dehydroalanine] the LD50 [4] was greater than 400 mg/kg and the “solubility of the product” value [5] was “low solubility”.

For `NCCS` [cysteamine], the “drop in benzo(a)pyrene hydroxylase activity” value ([1]; rat, in vivo) was “no more than 20%”, the “protection against the effect of doxorubicin on the level of cytochrome P450” value ([3]; rat, in vivo) was “does not protect” and the “decrease in aldrin mono-oxygenase activity” value [6] was 40%.

For `O=P1(N(CCCl)CCCl)NCCCO1` (stereo not shown) [Cyclophosphamide, cyclophosphamide], the “all die between (day of death)” value [7] was “twenty-second day and the twenty-fifth day”, the “median survival (M.S.)” value [8] was 24 days and the “variation of the mean weight of the mice on the fifth day (V.M.W.)” value (from here on “variation of the mean weight of the mice”) [8] was -1. The “median survival (M.S.)” value [9, 11] was 21 days, the “variation of the mean weight of the mice” value [9, 11] was -2.2 and the “median survival (M.S.)” value [9, 12] was 23 days. The “variation of the mean weight of the mice” value [9, 12] was -4.4, the “median survival (M.S.)” value [9, 13] was 31 days and the “variation of the mean weight of the mice” value [9, 13] was -6.6. For the same compound, the “median survival (M.S.)” value [9, 14] was 20 days, the “variation of the mean weight of the mice” value [9, 14] was -14 and the “median survival (M.S.)” value [9, 15] was 12 days. The “variation of the mean weight of the mice” value [9, 15] was -18.6.
